Experimental data from patent publication US11553712B2 (priority 2010, dated 2023).
Where two headings read alike, the source gives them in different places. Marks after values point to notes of the source that are not given here.

Key:
[1] = test system: TGEV; settings: 45% (v/v) PG eluate, 20°C
[2] = test system: BVDV; settings: 45% (v/v) PG eluate, 20°C
[3] = test system: PRV; settings: eluate with 45% PG
[4] = TGEV Run 1, T = 0 min Load Sample, Standard titration
[5] = TGEV Run 1, T = 5 min, Standard titration
[6] = TGEV Run 1, T = 15 min, Standard titration
[7] = TGEV Run 1, T = 60 min, Standard titration
[8] = TGEV Run 1, T = 180 min, Standard titration
[9] = TGEV Run 1, T = 360 min, Standard titration
[10] = TGEV Run 2, T = 0 min Load Sample, Standard titration
[11] = TGEV Run 2, T = 5 min, Standard titration
[12] = TGEV Run 2, T = 15 min, Standard titration
[13] = TGEV Run 2, T = 60 min, Standard titration
[14] = TGEV Run 2, T = 180 min, 1LVP (96 wells)
[15] = TGEV Run 2, T = 360 min, 1 LVP (96 wells)
[16] = BVDV Run 1, T = 0 min Load Sample, Standard titration
[17] = BVDV Run 1, T = 5 min, Standard titration
[18] = BVDV Run 1, T = 15 min, Standard titration
[19] = BVDV Run 1, T = 60 min, Standard titration
[20] = BVDV Run 1, T = 180 min, Standard titration
[21] = BVDV Run 1, T = 360 min, Standard titration
[22] = BVDV Run 2, T = 0 min Load Sample, Standard titration
[23] = BVDV Run 2, T = 5 min, Standard titration
[24] = BVDV Run 2, T = 15 min, Standard titration
[25] = BVDV Run 2, T = 60 min, Standard titration
[26] = BVDV Run 2, T = 180 min, Standard titration
[27] = T = 6 h (+SD) (Standard titration)

propane-1,2-diol [PG]
Clearance Factor [1, 4]: 0.07 log | Log10TICD50 (total viral load) [1, 4]: 7.38 Log10TICD50 | Titre [1, 4]: 5.12 log10TCID50/ml | Clearance Factor [1, 5]: 1.24 log | Log10TICD50 (total viral load) [1, 5]: 6.21 Log10TICD50 | Titre [1, 5]: 3.95 log10TCID50/ml | Reduction Factor ([1]; TGEV Run 1, T = 5 min vs T0, Standard titration): 1.17 log | Clearance Factor [1, 6]: 2.41 log | Log10TICD50 (total viral load) [1, 6]: 5.04 Log10TICD50 | Titre [1, 6]: 2.78 log10TCID50/ml | Reduction Factor ([1]; TGEV Run 1, T = 15 min vs T0, Standard titration): 2.34 log | Clearance Factor [1, 7]: 3.87 log | Log10TICD50 (total viral load) [1, 7]: 3.58 Log10TICD50 | Titre [1, 7]: 1.32 log10TCID50/ml | Reduction Factor ([1]; TGEV Run 1, T = 60 min vs T0, Standard titration): 3.8 log | Clearance Factor [1, 8]: 4.39 log | Log10TICD50 (total viral load) [1, 8]: 3.06 Log10TICD50 | Titre [1, 8]: 0.8 log10TCID50/ml | Reduction Factor ([1]; TGEV Run 1, T = 180 min vs T0, Standard titration): 4.32 log | Clearance Factor [1, 9]: >4.39 log | Log10TICD50 (total viral load) [1, 9]: <3.06 Log10TICD50 | Titre [1, 9]: <0.8 log10TCID50/ml | Reduction Factor ([1]; TGEV Run 1, T = 360 min vs T0, Standard titration): >4.32 log | Clearance Factor [1, 10]: 0.08 log | Log10TICD50 (total viral load) [1, 10]: 7.54 Log10TICD50 | Titre [1, 10]: 5.28 log10TCID50/ml | Clearance Factor [1, 11]: 1.08 log | Log10TICD50 (total viral load) [1, 11]: 6.54 Log10TICD50 | Titre [1, 11]: 4.28 log10TCID50/ml | Reduction Factor ([1]; TGEV Run 2, T = 5 min vs T0, Standard titration): 1 log | Clearance Factor [1, 12]: 2.16 log | Log10TICD50 (total viral load) [1, 12]: 5.46 Log10TICD50 | Titre [1, 12]: 3.2 log10TCID50/ml | Reduction Factor ([1]; TGEV Run 2, T = 15 min vs T0, Standard titration): 2.08 log | Clearance Factor [1, 13]: 4.56 log | Log10TICD50 (total viral load) [1, 13]: 3.06 Log10TICD50 | Titre [1, 13]: 0.8 log10TCID50/ml | Reduction Factor ([1]; TGEV Run 2, T = 60 min vs T0, Standard titration): 4.48 log | Clearance Factor [1, 14]: 5.48 log | Log10TICD50 (total viral load) [1, 14]: 2.14 Log10TICD50 | Titre [1, 14]: −0.12 log10TCID50/ml | Reduction Factor ([1]; TGEV Run 2, T = 180 min vs T0, 1LVP (96 wells)): 5.4 log | Clearance Factor [1, 15]: >5.48 log | Log10TICD50 (total viral load) [1, 15]: <2.14 Log10TICD50 | Titre [1, 15]: <−0.12 log10TCID50/ml | Reduction Factor ([1]; TGEV Run 2, T = 360 min vs T0, 1 LVP (96 wells)): >5.40 log | Clearance Factor [2, 16]: 0.43 log | Log10TICD50 (total viral load) [2, 16]: 5.85 Log10TICD50 | Titre [2, 16]: 3.12 log10TCID50/ml | Clearance Factor [2, 17]: 1.65 log | Log10TICD50 (total viral load) [2, 17]: 4.63 Log10TICD50 | Titre [2, 17]: 1.9 log10TCID50/ml | Reduction Factor ([2]; BVDV Run 1, T = 5 min vs T0, Standard titration): 1.22 log | Clearance Factor [2, 18]: 1.3 log | Log10TICD50 (total viral load) [2, 18]: 4.98 Log10TICD50 | Titre [2, 18]: 2.25 log10TCID50/ml | Reduction Factor ([2]; BVDV Run 1, T = 15 min vs T0, Standard titration): 0.87 log | Clearance Factor [2, 19]: 1.3 log | Log10TICD50 (total viral load) [2, 19]: 4.98 Log10TICD50 | Titre [2, 19]: 2.25 log10TCID50/ml | Reduction Factor ([2]; BVDV Run 1, T = 60 min vs T0, Standard titration): 0.87 log | Clearance Factor [2, 20]: 1.3 log | Log10TICD50 (total viral load) [2, 20]: 4.98 Log10TICD50 | Titre [2, 20]: 2.25 log10TCID50/ml | Reduction Factor ([2]; BVDV Run 1, T = 180 min vs T0, Standard titration): 0.87 log | Clearance Factor [2, 21]: 2.75 log | Log10TICD50 (total viral load) [2, 21]: 3.53 Log10TICD50 | Titre [2, 21]: 0.8 log10TCID50/ml | Reduction Factor ([2]; BVDV Run 1, T = 360 min vs T0, Standard titration): >4.32 log | Clearance Factor [2, 22]: 0.44 log | Log10TICD50 (total viral load) [2, 22]: 5.76 Log10TICD50 | Titre [2, 22]: 3.03 log10TCID50/ml | Clearance Factor [2, 23]: 1.88 log | Log10TICD50 (total viral load) [2, 23]: 4.32 Log10TICD50 | Titre [2, 23]: 1.59 log10TCID50/ml | Reduction Factor ([2]; BVDV Run 2, T = 5 min vs T0, Standard titration): 1.44 log | Clearance Factor [2, 24]: 2.15 log | Log10TICD50 (total viral load) [2, 24]: 4.05 Log10TICD50 | Titre [2, 24]: 1.32 log10TCID50/ml | Reduction Factor ([2]; BVDV Run 2, T = 15 min vs T0, Standard titration): 1.71 log | Clearance Factor [2, 25]: 1.88 log | Log10TICD50 (total viral load) [2, 25]: 4.32 Log10TICD50 | Titre [2, 25]: 1.59 log10TCID50/ml | Reduction Factor ([2]; BVDV Run 2, T = 60 min vs T0, Standard titration): 1.44 log | Clearance Factor [2, 26]: >2.67 log | Log10TICD50 (total viral load) [2, 26]: <3.53 Log10TICD50 | Titre [2, 26]: <0.8 log10TCID50/ml | Reduction Factor ([2]; BVDV Run 2, T = 180 min vs T0, Standard titration): >2.23 log | Clearance Factor ([2]; BVDV Run 2, T = 360 min, 1 LVP): >3.59 log | Log10TICD50 (total viral load) ([2]; BVDV Run 2, T = 360 min, 1 LVP): <2.61 Log10TICD50 | Titre ([2]; BVDV Run 2, T = 360 min, 1 LVP): <−0.12 log10TCID50/ml | Reduction Factor ([2]; BVDV Run 2, T = 360 min vs T0, 1 LVP): >3.15 log | Titer ([3]; Control T = 0 h (w/o SD)): 2.17 ± 0.30 TCID50/ml | Viral Load ([3]; Control T = 0 h (w/o SD)): 4.47 ± 0.30 log10 | Titer ([3]; Control T = 6 h (w/o SD)): ≤0.78* TCID50/ml | Viral Load ([3]; Control T = 6 h (w/o SD)): ≤3.08 log10 | Titer ([3]; T = 0 h (+SD)): ≤1.48* TCID50/ml | Viral Load ([3]; T = 0 h (+SD)): ≤3.78 log10 | Titer ([3]; T = 1 h (+SD)): ≤1.48* TCID50/ml | Viral Load ([3]; T = 1 h (+SD)): ≤3.78 log10 | Titer ([3]; T = 3 h (+SD)): ≤1.48* TCID50/ml | Viral Load ([3]; T = 3 h (+SD)): ≤3.78 log10 | Titer [3, 27]: ≤1.48* TCID50/ml | Viral Load [3, 27]: ≤3.78 log10
